Publication PMC9994261 (Cell, 2023)
Values after ≈ are worked out from the molar mass of the structure shown. Like-named read-outs stand apart in the source and are kept apart here.

Tests used:
Mtb Erdman = assay: Mouse model of chronic TB; assay type: in vivo; settings: 300 mg/kg oral once daily
physchem [1] = assay: physchem
Mtb H37Rv [2] = assay: Mouse model of acute TB; assay type: in vivo; settings: 4 weeks
in vitro = in vitro ADME; settings: human, Caco-2; read-out: Permeability in Caco2 cells (Papp)
in vivo = settings: male, Swiss, mouse, po; for AUC: oral 30 mg/kg
RAW264.7 cells = assay type: in vitro ADME, murine; settings: RAW macrophages, 10 μM
Method: RAW264.7 cells were allowed to adhere in 96 wells plates for 4 hours before compounds were added at 10 μM. Intracellular concentrations were measured by LC-MS/MS after cellular lysis. For each point, up to 4 hours, the Intra/Extra cellular ratio was calculated. Points are the mean ± SD of four tests. Clarithromycin and Azithromycin were used as references.

Mtb H37Rv [3] = assay: MIC80 after overnight pre-incubation of Mtb with subinhibitory macrolide; assay type: cell-based; settings: Mycobacterium tuberculosis, read-out: MIC80
[4] = assay type: in vitro ADME, human
Method: The metabolic stability of test compounds was determined as described.[57]^,[58] Incubation and experimental conditions with human hepatic microsomal fractions (purchased from BD Gentest as a pooled batch from 6 donors) were as follows: microsomal proteins, 1 mg/mL; bovine serum albumin, 1 mg/mL; substrate, 5 μM; incubation duration, 20 min; cytochrome P-450 monooxygenases (CYPs) and flavin containing monooxygenases (FMOs) cofactor, 1 mM NADPH. Enzyme activity was stopped with 1 volume of acetonitrile. […] For each test compound and for each microsomal preparation, three incubations were prepared: absolute reference in buffer (without enzyme material, i.e., microsomes); incubation without NADPH cofactor (with microsomal fractions); and incubation with NADPH (with microsomal fractions). For most compounds, biotransformation, as observed in hepatic microsomal fractions in the presence of the NADPH cofactor, consists of oxidative reactions catalyzed by either CYPs or FMOs. In these conditions, the percentage of total metabolism, which corresponds to oxidative metabolism, was determined as follows: [% total metabolism] ≈ [% oxidative metabolism] = [unchanged compound (UC) peak area − NADPH UC peak area + NADPH] × 100%, where NADPH corresponds to the enzyme cofactor for oxidation reactions catalyzed by either CYP or FMO.

[5] = pH 2, 50% acetonitrile/water
[6] = test system: GFP-expressing Mtb H37Rv in RAW264.7 macrophages; assay: Intramacrophage assay (MIC for Mtb in macrophages); assay type: cell-based, Mycobacterium tuberculosis; settings: Mycobacterium tuberculosis, H37RV
Mtb H37Rv LuxAB [7] = assay: microbe, parasite or virus in culture; assay type: cell-based; settings: Mycobacterium tuberculosis
Mtb ribosome = assay type: biochemical, Mycobacterium tuberculosis; settings: read-out: Inhibition of Mtb translation (IC50 μM)
Mtb H37Rv [8] = assay: Mouse model of highly acute TB; assay type: in vivo
[9] = assay type: in vitro ADME
Mtb H37Rv [10] = assay: Combination study in mouse model of TB; assay type: in vivo; settings: 4 weeks
[11] = assay type: in vitro ADME; remark: listed apart in the source
Mtb H37Rv [12] = assay: microbe, parasite or virus in culture; assay type: cell-based, Mycobacterium tuberculosis
Mtb H37Rv [13] = assay type: cell-based, Mycobacterium tuberculosis; settings: 7-day treatment
[14] = assay type: in vitro ADME; remark: listed apart in the source
physchem [15] = settings: pH 7.4
Mtb methylated ribosome = assay: Mtb in vitro translation assay with methylated (erythromycin-treated) ribosome; assay type: biochemical, Mycobacterium tuberculosis; settings: read-out: Translation inhibition of Mtb methylated ribosome (IC50 μM)
Mtb H37Rv LuxAB [16] = assay: microbe, parasite or virus in culture; assay type: cell-based; settings: Mycobacterium tuberculosis; remark: listed apart in the source
[17] = mouse po 10 mg/kg, PEG200/Tween80/Citrate Buffer 100mM pH4 (70/5/25)
[18] = mouse po 100 mg/kg, Lipidic formulation CremophorRH40/Capryol90/Mygliol812N (10/20/70) diluted in ½ water
[19] = mouse po 100 mg/kg, PEG200/Tween80/Citrate Buffer 100mM pH4 (70/5/25)
[20] = mouse po 300 mg/kg, PEG200/Tween80/Citrate Buffer 100mM pH4 (70/5/25)

CON=C1CC(C)OC(OC2C(C)CC(C)(OC(=O)NC(C)(C)CNS(=O)(=O)c3ccccc3)C(=O)C(C)C(OC(=O)CC(C)C)C(C)C(C(C)COC3OC(C)C(O)C(OC)C3OC)OC(=O)C(C)C(OC3CC(C)N(C)CC(C)O3)C2C)C1O (centres unmarked) [SEQ-9]
log CFU reduction compared with pre-treatment CFU (Mtb Erdman): 1.7 log CFU | pKa (physchem [1]): 8.3 | Survival of infected mice (Mtb H37Rv [2]; 37.5 to 300 mg/kg oral, 5 days per week, untreated controls died within 4 weeks): survived at all doses administered | Minimum effective dose (MED), complete prevention of bacterial growth (Mtb H37Rv [2]; oral, methylcellulose-Tween formulation): 300 mg/kg | Papp (in vitro): 1.5 ×10⁻⁶ cm/s | bioavailability (in vivo): 23% | AUC(0-t) (in vivo; 10 mg/kg, pH 4): 1100 ng·h/mL | Cmax (in vivo; 10 mg/kg, pH 4): 140 ng/mL | half-life (in vivo; 10 mg/kg, pH 4, Lung t1/2, mouse po 10 mg/kg, PEG200/Tween80/Citrate Buffer 100mM pH4 (70/5/25)): 4.5 h | half-life (in vivo; 10 mg/kg, pH 4, Plasma t1/2, mouse po 10 mg/kg, PEG200/Tween80/Citrate Buffer 100mM pH4 (70/5/25)): 3 h | Kp (in vivo; 30 mg/kg): 19 | AUC (in vivo; 30 mg/kg, AUC in lung @30 mg/kg, lung): 120000 ng·h/mL | AUC (in vivo; 30 mg/kg, AUC in plasma @30 mg/kg, plasma): 6300 ng·h/mL | AUC(0-t) (in vivo; 100 mg/kg): 22000 ng·h/mL | Cmax (in vivo; 100 mg/kg): 2130 ng/mL | half-life (in vivo; 100 mg/kg, Lung t1/2, mouse po 100 mg/kg, Lipidic formulation CremophorRH40/Capryol90/Mygliol812N (10/20/70) diluted in ½ water): 4.5 h | half-life (in vivo; 100 mg/kg, Plasma t1/2, mouse po 100 mg/kg, Lipidic formulation CremophorRH40/Capryol90/Mygliol812N (10/20/70) diluted in ½ water): 4.2 h | AUC(0-t) (in vivo; 100 mg/kg, pH 4): 11000 ng·h/mL | Cmax (in vivo; 100 mg/kg, pH 4): 1390 ng/mL | half-life (in vivo; 100 mg/kg, pH 4, Lung t1/2, mouse po 100 mg/kg, PEG200/Tween80/Citrate Buffer 100mM pH4 (70/5/25)): 6.5 h | half-life (in vivo; 100 mg/kg, pH 4, Plasma t1/2, mouse po 100 mg/kg, PEG200/Tween80/Citrate Buffer 100mM pH4 (70/5/25)): 4.4 h | AUC(0-t) (in vivo; 300 mg/kg, pH 4): 21000 ng·h/mL | Cmax (in vivo; 300 mg/kg, pH 4): 3110 ng/mL | half-life (in vivo; 300 mg/kg, pH 4, Lung t1/2, mouse po 300 mg/kg, PEG200/Tween80/Citrate Buffer 100mM pH4 (70/5/25)): 11 h | Intra-macrophage ratio (intra versus extracellular concentration) (RAW264.7 cells): ~60 fold | MIC80 (Mtb H37Rv [3]; Without induction): 1 µM (≈ 1.24 µg/mL) | MIC80 (Mtb H37Rv [3]; overnight pre-incubation with SEQ-9 0.125µg/ml): 1 µM (≈ 1.24 µg/mL) | MIC80 (Mtb H37Rv [3]; overnight pre-incubation with SEQ-9 0.25µg/ml): 1 µM (≈ 1.24 µg/mL) | MIC80 (Mtb H37Rv [3]; overnight pre-incubation with clarithromycin 0.125µg/ml): 1 µM (≈ 1.24 µg/mL) | MIC80 (Mtb H37Rv [3]; overnight pre-incubation with clarithromycin 0.25µg/ml): 1 µM (≈ 1.24 µg/mL) | Metabolic stability in human liver microsomes (% metabolized compound after 20 min) ([4]; 20 min incubation): 10% | Metabolic stability in human liver microsomes (% metabolized compound after 20 min), (K) ([4]; in presence of ketoconazole CYP3A inhibitor (K)): 0(K) % | Metabolic stability in human liver microsomes (% metabolized compound after 20 min), (Q) ([4]; in presence of quinidine CYP2D6 inhibitor (Q)): /10(Q) % | Chemical stability: t/12@pH 2 [5]: 48 h | MIC ([6]; read-out: MIC (μM) for Mtb in macrophages): 0.15 µM (≈ 0.187 µg/mL) | MIC ([6]; read-out: MIC for Mtb tuberculosis in macrophages): 0.11 µM (≈ 0.137 µg/mL) | MIC (Mtb H37Rv LuxAB [7]; read-out: MIC for Mtb under anaerobic conditions (LORA)): 0.6 µM (≈ 0.746 µg/mL) | MBC (Mtb H37Rv LuxAB [7]; read-out: Minimal bactericidal concentration (MBC) for Mtb under anaerobic conditions (LORA)): 6.3 µM (≈ 7.83 µg/mL) | IC50 (Mtb ribosome): 0.075 µM | Decrease in CFU (Mtb H37Rv [8]; 100 mg/kg, lipid-based formulation): 2 log10 | Reduction of mean lung CFU (Mtb H37Rv [8]; 300 mg/kg, after 2 weeks of treatment): 1.42 log10 | Minimum effective dose (MED) (Mtb H37Rv [8]; lipid-based formulation): 100 mg/kg | Metabolic stability in mouse liver microsomes (% metabolized compound after 20 min) [9]: 8% | Additional reduction of lung CFU compared with B or Pa alone (Mtb H37Rv [10]; SEQ-9 300 mg/kg added to B or Pa): approximately 1 log10 CFU | Additional reduction of lung CFU compared with L or Z alone (Mtb H37Rv [10]; SEQ-9 300 mg/kg added to L or Z): approximately 0.5 log units | Lung AUC0-24 [17]: 7800 ng·h/mL | Lung Cmax [17]: 790 ng/mL | Lung AUC0-24 [18]: 440000 ng·h/mL | Lung Cmax [18]: 31900 ng/mL | Lung AUC0-24 [19]: 190000 ng·h/mL | Lung Cmax [19]: 32900 ng/mL | Lung AUC0-24 [20]: 840000 ng·h/mL | Lung Cmax [20]: 252000 ng/mL | Higher plasma AUC compared with SEQ-372 (same oral dose of 30 mg/kg in mouse): 6 fold | Metabolic degradation/clearance from human liver microsomes [11]: 0.03 mL/h/10^6 hepatocytes | MIC (Mtb H37Rv [12]; Mycobacterium tuberculosis, ERDMAN / H37Rv, H37Rv/Erdman, read-out: MIC (μM) for Mtb in liquid culture): 0.7 µM (≈ 0.87 µg/mL) | MIC (Mtb H37Rv [12]; Mycobacterium tuberculosis, H37RV, read-out: MIC for Mtb in liquid culture): 0.7 µM (≈ 0.87 µg/mL) | MIC (Mtb H37Rv [12]; read-out: MIC for Mtb in liquid culture): 0.70 µM (≈ 0.87 µg/mL) | log CFU reduction (in vitro bactericidal activity) (Mtb H37Rv [13]; 30 μM): 1.5 log CFU | log CFU reduction (in vitro bactericidal activity) (Mtb H37Rv [13]; 60 μM): 2.5 log CFU | Metabolic stability in rat liver microsomes (% metabolized compound after 20 min) [14]: 9% | logD (physchem [15]): 3.4 | IC50 (Mtb methylated ribosome): 0.064 µM | MIC (Mtb H37Rv LuxAB [16]; read-out: MIC (μM) for Mtb in liquid culture + 25% human serum): 1.2 µM | MIC (Mtb H37Rv LuxAB [16]; read-out: MIC (μM) for Mtb in liquid culture + 25% mouse serum): 2.1 µM
